{"source": "patent US20230274799A1", "about": "“SYSTEMS AND METHODS FOR PATIENT STRATIFICATION AND IDENTIFICATION OF POTENTIAL BIOMARKERS” (Berg LLC, priority 2016, published 2023)", "assay": "Phase I trial, adverse events (CTCAE v4.02)", "type": "in vivo, human", "excerpt": "The study is a standard 3+3 dose escalation design with the dose escalated in successive cohorts of 3 to 6 patients each. Toxicity at each dose level is graded according to National Cancer Institute Common Terminology Criteria for Adverse Events (CTCAE v4.02). Safety oversight is provided by the Cohort Review Committee (CRC). If none of the 3 patients in a cohort experiences a DLT during Cycle 1, then 3 new patients may be entered at the next higher dose level following CRC review of safety and PK data from lower cohorts. The clinical trial is described in greater detail in WO2015/035094, which is incorporated by reference herein in its entirety.\nFour grade 3 events were reported. During the time period covered by Example 1, 1503 adverse events were reported. 75 events were reported as serious. Of the serious adverse events, 27 were not related, 38 were unlikely related, 8 were possibly related, one was probably related and, one was definitely related (activated partial thromboplastin time (APTT) prolonged).\nThe table below contains the adverse events reported with a frequency of 4% or greater.", "key": {"[1]": {"conditions": "Grade 2, 3*, adverse events with frequency of 4% or greater"}, "[2]": {"conditions": "time period covered by Example 1"}}}
{"smiles": "COC1=C(OC)C(=O)C(C/C=C(\\C)CC/C=C(\\C)CC/C=C(\\C)CC/C=C(\\C)CC/C=C(\\C)CC/C=C(\\C)CC/C=C(\\C)CC/C=C(\\C)CC/C=C(\\C)CCC=C(C)C)=C(C)C1=O", "note": "[Coenzyme Q10]", "values": [{"measurement": "Anemia, Number of Occurrences", "setting": "Grade 2, 3", "result": 38}, {"measurement": "Anemia, Percentage of Occurrences", "setting": "Grade 2, 3", "result": "(15%)"}, {"measurement": "Elevated AST, Number of Occurrences", "setting": "Grade 2, 3", "result": 14}, {"measurement": "Elevated AST, Percentage of Occurrences", "setting": "Grade 2, 3", "result": "(6%)"}, {"measurement": "Fatigue, Number of Occurrences", "setting": "Grade 2, 3", "result": 11}, {"measurement": "Fatigue, Percentage of Occurrences", "setting": "Grade 2, 3", "result": "(4%)"}, {"measurement": "Elevated PT/PTT/INR, Number of Occurrences", "setting": "[1]", "result": 67}, {"measurement": "Elevated PT/PTT/INR, Percentage of Occurrences", "setting": "[1]", "result": "(26%)"}, {"measurement": "Thrombocytopenia, Number of Occurrences", "setting": "Grade 2, 3, 4*", "result": 34}, {"measurement": "Thrombocytopenia, Percentage of Occurrences", "setting": "Grade 2, 3, 4*", "result": "(13%)"}, {"measurement": "Hypertriglyceridemia, Number of Occurrences", "setting": "Grade 2, 4*", "result": 15}, {"measurement": "Hypertriglyceridemia, Percentage of Occurrences", "setting": "Grade 2, 4*", "result": "(6%)"}, {"measurement": "Number of grade 3 PT/PTT/INR prolongation events reported", "setting": "in vivo", "result": "Four"}, {"measurement": "Most common related adverse events", "setting": "mitigated after Vitamin K administration", "result": "grade 1-2 prothrombin time (PT)/partial thromboplastin time(PTT)/International Normalized Ratio (INR) prolongation"}, {"measurement": "Serious adverse events not related", "setting": "of 75 serious events", "result": 27}, {"measurement": "Serious adverse events possibly related", "setting": "of 75 serious events", "result": 8}, {"measurement": "Serious adverse events probably related", "setting": "of 75 serious events", "result": "one"}, {"measurement": "Serious adverse events unlikely related", "setting": "of 75 serious events", "result": 38}, {"measurement": "Serious adverse events definitely related", "setting": "of 75 serious events, activated partial thromboplastin time (APTT) prolonged", "result": "one"}, {"measurement": "Number of adverse events reported", "setting": "[2]", "result": 1503}, {"measurement": "Number of events reported as serious", "setting": "[2]", "result": 75}]}
